# What was measured:
# Assay in all cases: In vitro antibacterial evaluation: minimum inhibitory concentration (MIC), broth dilution method
# Type in all cases: cell-based
# [1] = test system: Staphylococcus sp.
# Method: (§1) The minimum inhibitory concentration (MIC), the lowest concentration of the antibiotic which inhibits growth of the test organism, is determined by the broth dilution method using Muller-Hinton II […] (Baltimore Biological Laboratories) following the recommendations of the National Committee for Clinical Laboratory Standards [Methods for dilution antimicrobial susceptibility tests for bacteria that grow aerobically, approved standard M7-A2, National Committee for Clinical Laboratory Standards, Villanova, Pa].
# (§2) An inoculum level of 5×10^5 CFU/mL, and a range of antibiotic concentrations (64-0.06 μg/mL) is used. […] The test organisms include a spectrum of Gram-positive bacteria comprised of Staphylococcus sp., Streptococcus sp. and Enterococcus sp. These organisms include recent clinical isolates that are resistant to methicillin, penicillin and/or vancomycin.
# [2] = test system: Streptococcus sp.
# Method: as §1, §2
# [3] = test system: Enterococcus sp.
# Method: as §1, §2
# [4] = test system: Escherichia coli
# Method: as §1, §2
# [5] = broth dilution, 5×10^5 CFU/mL, 18 hours at 35° C.
# [6] = broth dilution, inoculum 5×10^5 CFU/mL, 18 hours at 35° C.
structure (smiles),measurement,setting,value
"CC(c1ccccc1)C1NC(=O)CNC(=O)C(CO)NC(=O)C(C(O)C2CNC(=N)N2C2OC(CO)C(O)C(O)C2O)NC(=O)C(C(O)C2CNC(=N)N2)NC(=O)C(Cc2ccc(OC3OC(CO)C(OC4OC5COC(c6cccc(OCc7ccc([N+](=O)[O-])cc7)c6)OC5C(O)C4O)C(O)C3O)cc2)NC1=O (stereo not drawn) [Example 182, Cyclo[glycyl-β-methylphenylalanyl-O-[4-O-[4,6-O-(3-[[(4-nitrophenyl)methoxy]benzylidene]hexopyranosyl]hexopyranosyl]tyrosyl-3-(2-iminoimidazolidin-4-yl)seryl-3-β-hexopyranosyl-2-iminoimidazolidin-4-yl)serylseryl]]",MIC Staphylococcus aureus (ATCC 29213),[1]; [5],>64 µg/mL
same,MIC Staphylococcus aureus (GC 1131),[1]; [5],>64 µg/mL
same,MIC Staphylococcus aureus (GC 3051),[1]; [5],>64 µg/mL
same,MIC Staphylococcus aureus (GC 3053),[1]; [5],>64 µg/mL
same,MIC Staphylococcus aureus (GC 4541),[1]; [5],>64 µg/mL
same,MIC Staphylococcus aureus (GC 4542),[1]; [5],>64 µg/mL
same,MIC Staphylococcus aureus (GC 4544),[1]; [5],>64 µg/mL
same,MIC Staphylococcus aureus (GC 4545),[1]; [5],>64 µg/mL
same,MIC Staphylococcus aureus (ATCC 29213),"[1]; strain ATCC 29213, broth dilution, 18 hours at 35° C.",>64 µg/mL
same,MIC Staphylococcus aureus (GC 1131),"[1]; strain GC 1131, broth dilution, 18 hours at 35° C.",>64 µg/mL
same,MIC Staphylococcus aureus (GC 3051),"[1]; strain GC 3051, broth dilution, 18 hours at 35° C.",>64 µg/mL
same,MIC Staphylococcus aureus (GC 3053),"[1]; strain GC 3053, broth dilution, 18 hours at 35° C.",>64 µg/mL
same,MIC Staphylococcus aureus (GC 4541),"[1]; strain GC 4541, broth dilution, 18 hours at 35° C.",>64 µg/mL
same,MIC Staphylococcus aureus (GC 4542),"[1]; strain GC 4542, broth dilution, 18 hours at 35° C.",>64 µg/mL
same,MIC Staphylococcus aureus-SMITH (GC 4543),[1]; strain GC 4543,>64 µg/mL
same,MIC Staphylococcus aureus (GC 4544),"[1]; strain GC 4544, broth dilution, 18 hours at 35° C.",>64 µg/mL
same,MIC Staphylococcus aureus (GC 4545),"[1]; strain GC 4545, broth dilution, 18 hours at 35° C.",>64 µg/mL
same,MIC Staphylococcus haemolyticus (GC 4546),[1]; strain GC 4546,>64 µg/mL
same,MIC Coagulase Negative Staphylococcus (GC 4547),[1]; strain GC 4547,>64 µg/mL
same,MIC Coagulase Negative Staphylococcus (GC 4548),[1]; strain GC 4548,>64 µg/mL
same,MIC Coagulase Negative Staphylococcus (GC 4549),[1]; strain GC 4549,>64 µg/mL
same,MIC Coagulase Negative Staphylococcus (GC 4551),[1]; strain GC 4551,>64 µg/mL
same,MIC Coagulase Negative Staphylococcus (GC 6257),[1]; strain GC 6257,>64 µg/mL
same,MIC Streptococcus agalactiae (GC 4564),[2]; [6],32 µg/mL
same,MIC Streptococcus pneumoniae (ATCC 6301),[2]; [6],4 µg/mL
same,MIC Streptococcus pneumoniae (GC 1894),[2]; [6],8 µg/mL
same,MIC Streptococcus pneumoniae (GC 4565),[2]; [6],8 µg/mL
same,MIC Streptococcus pyogenes (GC 4563),[2]; [6],64 µg/mL
same,MIC Streptococcus pneumoniae (ATCC 6301),[2]; strain ATCC 6301,4 µg/mL
same,MIC Streptococcus pneumoniae (GC 1894),[2]; strain GC 1894,8 µg/mL
same,MIC Streptococcus pyogenes (GC 4563),[2]; strain GC 4563,64 µg/mL
same,MIC Streptococcus agalactiae (GC 4564),[2]; strain GC 4564,32 µg/mL
same,MIC Streptococcus pneumoniae (GC 4565),[2]; strain GC 4565,8 µg/mL
same,MIC Enterococcus avium (GC 4558),[3]; [6],>64 µg/mL
same,MIC Enterococcus faecalis (ATCC 29212),[3]; [6],>64 µg/mL
same,MIC Enterococcus faecalis (GC 2242),[3]; [6],>64 µg/mL
same,MIC Enterococcus faecalis (GC 2691),[3]; [6],>64 µg/mL
same,MIC Enterococcus faecalis (GC 3059),[3]; [6],>64 µg/mL
same,MIC Enterococcus faecalis (GC 4552),[3]; [6],>64 µg/mL
same,MIC Enterococcus faecalis (GC 4553),[3]; [6],>64 µg/mL
same,MIC Enterococcus faecalis (GC 4554),[3]; [6],>64 µg/mL
same,MIC Enterococcus faecalis (GC 6189),[3]; [6],>64 µg/mL
same,MIC Enterococcus faecium (GC 2243),[3]; [6],>64 µg/mL
same,MIC Enterococcus faecium (GC 4556),[3]; [6],>64 µg/mL
same,MIC Enterococcus faecium (GC 4557),[3]; [6],>64 µg/mL
same,MIC Enterococcus faecalis (ATCC 29212),[3]; strain ATCC 29212,>64 µg/mL
same,MIC Enterococcus faecalis (GC 2242),[3]; strain GC 2242,>64 µg/mL
same,MIC Enterococcus faecium (GC 2243),[3]; strain GC 2243,>64 µg/mL
same,MIC Enterococcus faecalis (GC 2691),[3]; strain GC 2691,>64 µg/mL
same,MIC Enterococcus faecalis (GC 3059),[3]; strain GC 3059,>64 µg/mL
same,MIC Enterococcus faecalis (GC 4552),[3]; strain GC 4552,>64 µg/mL
same,MIC Enterococcus faecalis (GC 4553),[3]; strain GC 4553,>64 µg/mL
same,MIC Enterococcus faecalis (GC 4554),[3]; strain GC 4554,>64 µg/mL
same,MIC Enterococcus faecium (GC 4556),[3]; strain GC 4556,>64 µg/mL
same,MIC Enterococcus faecium (GC 4557),[3]; strain GC 4557,>64 µg/mL
same,MIC Enterococcus avium (GC 4558),[3]; strain GC 4558,>64 µg/mL
same,MIC Enterococcus faecalis (GC 6189),[3]; strain GC 6189,>64 µg/mL
same,MIC Escherichia coli (ATCC 25922),[4]; strain ATCC 25922,>64 µg/mL
same,MIC Escherichia coli (GC 4559),[4]; strain GC 4559,>64 µg/mL
same,MIC Escherichi coli (GC 4560),[4]; strain GC 4560,>64 µg/mL
CC(c1ccccc1)C1NC(=O)CNC(=O)C(CO)NC(=O)C(CC2CNC(=N)N2C2OC(CO)C(O)C(O)C2O)NC(=O)C(CC2CNC(=N)N2)NC(=O)C(Cc2ccc(OC3OC(CO)C(OC4OC(CO)C(O)C(OCc5ccc(OCc6ccccc6)cc5)C4O)C(O)C3O)cc2)NC1=O (stereo not shown) [Example 246b],MIC Coagulase Negative Staphylococcus (GC 4547),"[1]; Coagulase Negative Staphylococcus (GC 4547), 18 hours at 35° C.",64 µg/mL
same,MIC Coagulase Negative Staphylococcus (GC 4548),"[1]; Coagulase Negative Staphylococcus (GC 4548), 18 hours at 35° C.",64 µg/mL
same,MIC Coagulase Negative Staphylococcus (GC 4549),"[1]; Coagulase Negative Staphylococcus (GC 4549), 18 hours at 35° C.",32 µg/mL
same,MIC Coagulase Negative Staphylococcus (GC 4551),"[1]; Coagulase Negative Staphylococcus (GC 4551), 18 hours at 35° C.",64 µg/mL
same,MIC Coagulase Negative Staphylococcus (GC 6257),"[1]; Coagulase Negative Staphylococcus (GC 6257), 18 hours at 35° C.",64 µg/mL
same,MIC Staphylococcus aureus (ATCC 29213),"[1]; Staphylococcus aureus (ATCC 29213), 18 hours at 35° C.",64 µg/mL
same,MIC Staphylococcus aureus (GC 3051),"[1]; Staphylococcus aureus (GC 3051), 18 hours at 35° C.",64 µg/mL
same,MIC Staphylococcus aureus (GC 4541),"[1]; Staphylococcus aureus (GC 4541), 18 hours at 35° C.",64 µg/mL
same,MIC Staphylococcus aureus (GC 4542),"[1]; Staphylococcus aureus (GC 4542), 18 hours at 35° C.",64 µg/mL
same,MIC Staphylococcus aureus (GC 4544),"[1]; Staphylococcus aureus (GC 4544), 18 hours at 35° C.",64 µg/mL
same,MIC Staphylococcus aureus (GC 4545),"[1]; Staphylococcus aureus (GC 4545), 18 hours at 35° C.",64 µg/mL
same,MIC Staphylococcus aureus-SMITH (GC 4543),"[1]; Staphylococcus aureus-SMITH (GC 4543), 18 hours at 35° C.",>64 µg/mL
same,MIC Streptococcus agalactiae (GC 4564),"[2]; Streptococcus agalactiae (GC 4564), 18 hours at 35° C.",64 µg/mL
same,MIC Streptococcus pneumoniae (ATCC 6301),"[2]; Streptococcus pneumoniae (ATCC 6301), 18 hours at 35° C.",32 µg/mL
same,MIC Streptococcus pneumoniae (GC 1894),"[2]; Streptococcus pneumoniae (GC 1894), 18 hours at 35° C.",32 µg/mL
same,MIC Streptococcus pneumoniae (GC 4565),"[2]; Streptococcus pneumoniae (GC 4565), 18 hours at 35° C.",64 µg/mL
same,MIC Streptococcus pyogenes (GC 4563),"[2]; Streptococcus pyogenes (GC 4563), 18 hours at 35° C.",64 µg/mL
same,MIC Streptococcus agalactiae (GC 4564),[2]; [6],64 µg/mL
same,MIC Streptococcus pneumoniae (ATCC 6301),[2]; [6],32 µg/mL
same,MIC Streptococcus pneumoniae (GC 1894),[2]; [6],32 µg/mL
same,MIC Streptococcus pneumoniae (GC 4565),[2]; [6],64 µg/mL
same,MIC Streptococcus pyogenes (GC 4563),[2]; [6],64 µg/mL
same,MIC Enterococcus avium (GC 4558),"[3]; Enterococcus avium (GC 4558), 18 hours at 35° C.",64 µg/mL
same,MIC Enterococcus faecium (GC 4557),"[3]; Enterococcus faecium (GC 4557), 18 hours at 35° C.",32 µg/mL
same,MIC Escherichia coli (GC 4560),"[4]; Escherichia coli (GC 4560), 18 hours at 35° C.",32 µg/mL

# — US8247211B2, “Glycopeptide antibiotics” (American Cyanamid Company, priority 2001, dated 2012)
